Assay results published in patent publication US11919897B2, “Inhibitors of human immunodeficiency virus replication” (VIIV HEALTHCARE UK (No. 5) LIMITED, priority 2018, dated 2024).

Tests used:
[1] = Compound cytotoxicity, XTT-based colorimetric assay; type: cell-based; conditions: human; uninfected MT2 cells, day 4, XTT assay
Procedure: Compound cytotoxicity and the corresponding CC50 values were determined using the same protocol as described in the antiviral assay except that uninfected cells were used. Cytotoxicity was assessed on day 4 in uninfected MT2 cells by using an XTT (2,3-bis[2-Methoxy-4-nitro-5-sulfophenyl]-2H-tetrazolium-5-carboxyanilide inner salt)-based colorimetric assay (Sigma-Aldrich, St Louis, Mo.).

[2] = tested on: recombinant NL4-3 virus (nef section replaced with Renilla luciferase gene) in MT-2 cells; experiment: HIV cell culture assay (antiviral activity, luciferase readout in infected MT-2 cells); type: cell-based; conditions: Renilla, NL43
Procedure: HIV cell culture assay-MT-2 cells, 293T cells and the proviral DNA clone of NL4-3 virus were obtained from the NIH AIDS Research and Reference Reagent Program. MT-2 cells were propagated in RPMI 1640 media supplemented with 10% heat inactivated fetal bovine serum (FBS), 100 μg/ml penicillin G and up to 100 units/mL streptomycin. The 293T cells were propagated in DMEM media supplemented with 10% heat inactivated FBS, 100 μg/mL penicillin G and 100 μg/mL streptomycin. A recombinant NL4-3 proviral clone, in which a section of the nef gene was replaced with the Renilla luciferase gene, was used to make the reference virus used in these studies. The recombinant virus was prepared through transfection of the recombinant NL4-3 proviral clone into 293T cells using Transit-293 Transfection Reagent from Minis Bio LLC (Madison, WI). Supernatent was harvested after 2-3 days and the amount of virus present was titered in MT-2 cells using luciferase enzyme activity as a marker by measuring luciferase enzyme activity. Luciferase was quantitated using the EnduRen Live Cell Substrate from Promega (Madison, WI). Antiviral activities of compounds toward the recombinant virus were quantified by measuring luciferase activity in MT-2 cells infected for 4-5 days with the recombinant virus in the presence of serial dilutions of the compound.
The 50% effective concentration (EC50) was calculated by using the exponential form of the median effect equation where (Fa)=1/[1+(ED50/drug conc.)m] (Johnson V A, Byington R T. Infectivity Assay. In Techniques in HIV Research. ed. Aldovini A, Walker B D. 71-76. New York: Stockton Press. 1990).

Compound | CC50 at 4 days [1] | EC50 [2]
Cn1nc(NS(C)(=O)=O)c2c(Cl)ccc(-n3c([C@H](Cc4cc(F)cc(F)c4)NC(=O)Cn4nc(C(F)F)c5c4C(F)(F)[C@@H]4C[C@H]54)nc4nc(O)ccc4c3=O)c21 (atropisomer, axis not shown; (P)) [Example 1, N—((S)-1-((3P)-3-(4-chloro-1-methyl-3-(methylsulfonamido)-1H-indazol-7-yl)-7-hydroxy-4-oxo-3,4-dihydropyrido[2,3-d]pyrimidin-2-yl)-2-(3,5-difluorophenyl)ethyl)-2-((3bS,4aR)-3-(difluoromethyl)-5,5-difluoro-3b,4,4a,5-tetrahydro-1H-cyclopropa[3,4]cyclopenta[1,2-c]pyrazol-1-yl)acetamide] | > 1000 nM | 2.7 nM
Cn1nc(NS(C)(=O)=O)c2c(Cl)ccc(-n3c([C@H](Cc4cc(F)cc(F)c4)NC(=O)Cn4nc(C(F)F)c5c4C(F)(F)[C@@H]4C[C@H]54)nc4nc(OCC5CCCC5)ccc4c3=O)c21 (atropisomer, axis not shown; (P)) [Example 2, N—((S)-1-((3P)-3-(4-chloro-1-methyl-3-(methylsulfonamido)-1H-indazol-7-yl)-7-(cyclopentylmethoxy)-4-oxo-3,4-dihydropyrido[2,3-d]pyrimidin-2-yl)-2-(3,5-difluorophenyl)ethyl)-2-((3bS,4aR)-3-(difluoromethyl)-5,5-difluoro-3b,4,4a,5-tetrahydro-1H-cyclopropa[3,4]cyclopenta[1,2-c]pyrazol-1-yl)acetamide] | > 1000 nM | 0.06 nM
Cn1nc(NS(C)(=O)=O)c2c(Cl)ccc(-n3c([C@H](Cc4cc(F)cc(F)c4)NC(=O)Cn4nc(C(F)F)c5c4C(F)(F)[C@@H]4C[C@H]54)nc4nc(OCCC(C)(C)C)ccc4c3=O)c21 (atropisomer, axis not shown; (P)) [Example 3, N—((S)-1-((3P)-3-(4-chloro-1-methyl-3-(methylsulfonamido)-1H-indazol-7-yl)-7-(3,3-dimethylbutoxy)-4-oxo-3,4-dihydropyrido[2,3-d]pyrimidin-2-yl)-2-(3,5-difluorophenyl)ethyl)-2-((3bS,4aR)-3-(difluoromethyl)-5,5-difluoro-3b,4,4a,5-tetrahydro-1H-cyclopropa[3,4]cyclopenta[1,2-c]pyrazol-1-yl)acetamide] | > 1000 nM | 0.06 nM
CCC(C)(C)CCOc1ccc2c(=O)n(-c3ccc(Cl)c4c(NS(C)(=O)=O)nn(C)c34)c([C@H](Cc3cc(F)cc(F)c3)NC(=O)Cn3nc(C(F)F)c4c3C(F)(F)[C@@H]3C[C@H]43)nc2n1 (atropisomer, axis not shown; (P)) [Example 13, N—((S)-1-((3P)-3-(4-chloro-1-methyl-3-(methylsulfonamido)-1H-indazol-7-yl)-7-((3,3-dimethylpentyl)oxy)-4-oxo-3,4-dihydropyrido[2,3-d]pyrimidin-2-yl)-2-(3,5-difluorophenyl)ethyl)-2-((3bS,4aR)-3-(difluoromethyl)-5,5-difluoro-3b,4,4a,5-tetrahydro-1H-cyclopropa[3,4]cyclopenta[1,2-c]pyrazol-1-yl)acetamide] | – | 0.17 nM
Cn1nc(NS(C)(=O)=O)c2c(Cl)ccc(-n3c([C@H](Cc4cc(F)cc(F)c4)NC(=O)Cn4nc(C(F)F)c5c4C(F)(F)[C@@H]4C[C@H]54)nc4nc(OCCCC(C)(C)C)ccc4c3=O)c21 (atropisomer, axis not shown; (P)) [Example 19] | – | 0.11 nM
